Reference: patent US11298346B2, “Methods for treatment of fibrotic diseases” (Beta Cat Pharmaceuticals, Inc., priority 2017, dated 2022)
Several values for one entry are separate records, joined by “and”; a condition that tells them apart may be missing. Equal entries are not always repeated.

Key:
[1] = tested on: cell lines derived from chromic myeloid leukemia (CML) patients and cell lines and primary cells derived from myeloproliferative neoplasm (MPN) patients; details: background statement; cited from earlier work
[2] = tested on: bleomycin-induced pulmonary fibrosis; assay: Bleomycin-induced pulmonary fibrosis mouse model, intranasal Tegavivint; format: in vivo, C57BL/6 wild-type mice; details: 5 mg/kg biw intranasal
Procedure: In another pilot study, Tegavivint at 5 mg/kg was administered biw (twice a week) via intranasal delivery to C57BL/6 wild-type mice. Bleomycin was administered to the mice intratracheally on day 0 to induce pulmonary fibrosis, and Tegavivint or the vehicle (5% dextrose in water) was administered on days 6, 10, 14, 18 and 21. The purpose of this experiment was to evaluate the effect of topically-administered Tegavivint on bleomycin-induced pulmonary fibrosis in vivo.

[3] = tested on: primary palmar fascia fibroblasts derived from the fibrotic palmar fascia (DD249 cells); assay: Alamar Blue proliferation/viability assay, DD249 cells; format: cell-based, human; details: for proliferation/viability: DD249 cells, 48 and 72 hrs relative to 24 hrs
Procedure: (§1) Tegavivint (BC-2059) powder was reconstituted it in 100% dimethyl sulfoxide (DMSO) to a 10_mM stock solution. The stock was diluted to 100 nM in serum-free media (α minimal essential medium, αMEM), and further diluted to 100 pM in serum-free αMEM immediately before the analyses were performed. Serial dilutions from 100 pM down to 0.78 pM were assessed in various assays. 0.001% DMSO in αMEM was used as the vehicle control, and αMEM alone was used as an untreated control, in a subset of analyses.
Proliferation/viability analyses were performed in triplicate on primary palmar fascia fibroblasts derived from the fibrotic palmar fascia (DD cells) of 2 patients with Dupuytren's disease (DD249, DD77) and syngeneic primary palmar fascia fibroblasts derived from visibly non-fibrotic palmar fascia (PF cells) from these patients (PF249, PF77). Cells were cultured on type-1 collagen coated 96 well trays for these analyses to better replicate substrate interactions in vivo. Two independent assays were used for these analyses: Alamar Blue assays for analyses up to 72 hrs in cells derive from 1 patient, and Water Soluble Tetrazolium-(WST-1) assays for analyses up to 24 hrs in cells derived from the other patients. Significant effects of treatment on proliferation over time were detected by ANOVA repeated measures.

[4] = tested on: CTNNB1, EGR1, NRG1 and WISP1 mRNA levels; assay: TaqMan gene expression analyses in DD180, PF180 and CT38 cells; format: cell-based, human
Procedure: as §1
Gene expression analyses were assessed in triplicate on a Real-Time PCR ABI Prism 7500. Total RNA samples were derived from syngeneic DD and PF cells cultured from the explant tissues from one patient with Dupuytren's disease (DD180 and PF 180) and 1 patient with no history of Dupuytren's disease (CT38) as a normal allogeneic control. RNA quality was assessed on an Agilent 2100 Bioanalyzer and 2 μg of high quality total RNA was reverse transcribed into cDNA first strand using the High-Capacity cDNA Archive Kit (Applied Biosystems) in accordance with the manufacturer's instructions. TaqMan gene expression assays were used to measure CTNNB1, EGR1, NRG1 and WISP1 mRNA levels after 48 hrs of treatment in cells cultured on type-1 collagen coated 6 well trays. The ΔΔCT method was used after confirmation of parallel PCR amplification efficiencies of target and housekeeping genes PCR reactions were carried out under the following conditions: Initial denaturation at 95° C. for 5 min followed by cycles of denaturation (95° C. for 15 sec), primer annealing (60° C. for 1 min) and transcript extension ([…]) for 40 cycles.

[5] = tested on: DD180 cells; assay: Fibroblast populated collagen lattice (FPCL) contraction assay; format: cell-based, human; details: ≤25 pM
Procedure: as §1
Fibroblast populated collagen lattice assays were performed on primary palmar fascia fibroblasts derived from the fibrotic palmar fascia of one patient with Dupuytren's disease (DD180) using the protocol described in Raykha, C., Crawford, J., Gan, B. S., Fu, P., Bach, L. A., and O'Gorman, D. B. (2013) IGF-II and IGFBP-6 regulate cellular contractility and proliferation in Dupuytren's disease. Biochimica et biophysica acta. 1832, 1511-9.

[6] = Lung concentration after nebulizing delivery of Tegavivint formulations (whole body exposure); format: in vivo, bcat-Ex3 mice; details: mouse lung, individual animals, listed as BC2059
Procedure: Tegavivint particles suspended in Poloxamer 188/sorbitol at a concentration of 25 mg/mL were used. These formulations were applied to the mice in the form of aerosols, through the method of whole body exposure. The mice were placed inside a plastic box. This box was sealed and connected by one of its sides to the outlet of the nebulizer device, and on the other side to a system of closed water. The whole procedure was carried out inside the fume hood of the animal room.
For the first experiment, the nebulizer kit of SATER LABS was used. This device uses the jet system. The device was primed with 5 ml of the drug, i.e. 125 mg of tegavivint (BC2059), for each group of 5 mice, and then the device was connected to the power source for nebulization. The energy was supplied by a DeVilbiss compressor model 646, which allows 5-7 pounds of pressure, and a flow of 6-8 liters per minute. For the second experiment, the device used was the Altera, ultrasonic nebulizer.
For the two experiments, 10 male bcat-Ex3 mice were used for each set. These mice were separated into 2 groups of 5 mice each. The first group received the drug daily, for 5 consecutive days. The second group received the drug only once (the fifth day). On day 5 all mice were sacrificed, lung harvested, and samples were stored at −30 degrees, in two labeled nylon bags, each containing the 5 samples from each group.

[7] = Topical Tegavivint alone (no bleomycin)
[8] = ≤25 pM, 48 hrs, DD180, PF180, CT38 cells
[9] = Aerosol jet nebulizer (Sater Labs), 1 day (single-dose on Day 5)
[10] = Aerosol jet nebulizer (Sater Labs), 5 day (5 daily doses on Days 1-5)
[11] = Nebulizer ultrasonic eRapid (Altera), 1 day (single-dose on Day 5)
[12] = Nebulizer ultrasonic eRapid (Altera), 5 day (5 daily doses on Days 1-5)

Tegavivint
apoptosis and growth inhibition [1]: undergo apoptosis and growth inhibition | pulmonary compliance ([2]; Tegavivint after bleomycin, compared to bleomycin only): showed a trend towards increased compliance | soluble collagen content ([2]; Tegavivint after bleomycin, compared with bleomycin-only): significantly decreased the collagen level | pulmonary compliance [2, 7]: caused an increase in compliance | soluble collagen content [2, 7]: showed a slight increase in collagen | proliferation/viability ([3]; 25 pM): viable and able to proliferate to significantly greater cell numbers | proliferation/viability ([3]; 50 pM): unable to proliferate | therapeutic window concentration (proliferation of fibrosis-derived but not syngeneic palmar fascia derived cells inhibited) ([3]; DD versus PF cells, preliminary analyses): approximately 50 pM | cytotoxic concentrations ([3]; fibrosis-derived fibroblasts, both proliferation/viability assays and visual inspection): > 100 pM | effects on cell proliferation/viability ([3]; ≤25 pM): did not identify any consistent effects | effects on the expression of genes that associate with nuclear β-catenin ([4]; cells treated with ≥25 pM): No discernible effects | effects on gene expression ([4]; ≤25 pM): did not identify any consistent effects | CTNNB1 expression [4, 8]: no evidence of a compensatory increase | EGR1 expression levels [4, 8]: did not see any evidence of BC-2059-induced changes | NRG1 expression levels [4, 8]: did not see any evidence of BC-2059-induced changes | WISP1 expression levels [4, 8]: did not see any evidence of BC-2059-induced changes | effects on contractility [5]: did not identify any consistent effects | Lung Concentration (ng/g) [6, 9]: 5040 ng/g and 16800 ng/g and 56800 ng/g and 5200 ng/g and 17100 ng/g | Lung Concentration (ng/mL) [6, 9]: 1260 ng/mL and 4190 ng/mL and 14200 ng/mL and 1300 ng/mL and 4270 ng/mL | Lung Concentration (ng/g) [6, 10]: 18600 ng/g and 6600 ng/g and 14500 ng/g and 12300 ng/g and 14200 ng/g | Lung Concentration (ng/mL) [6, 10]: 4640 ng/mL and 1650 ng/mL and 3620 ng/mL and 3080 ng/mL and 3550 ng/mL | Lung Concentration (ng/g) [6, 11]: 11400 ng/g and 11600 ng/g and 34600 ng/g and 15100 ng/g and 2400 ng/g | Lung Concentration (ng/mL) [6, 11]: 2840 ng/mL and 2910 ng/mL and 8660 ng/mL and 3780 ng/mL and 601 ng/mL | Lung Concentration (ng/g) [6, 12]: 19100 ng/g and 17200 ng/g and 18800 ng/g and 12200 ng/g and 22900 ng/g | Lung Concentration (ng/mL) [6, 12]: 4770 ng/mL and 4290 ng/mL and 4690 ng/mL and 3040 ng/mL and 5730 ng/mL
